From patent US4201843A, “Process for manufacturing tylosin derivatives” (Sanraku Ocean Co., Ltd., priority 1975, dated 1980)
Values after ≈ are worked out from the molar mass of the structure shown.

Experiments:
solubility in solvents = type: physicochemical; conditions: for solubility in lower alcohols, ketones, ethers, esters, benzene and toluene: e.g. ethanol, acetone, ethyl ether, ethyl acetate
Text: (§1) The physicochemical analysis and deterimations included elementary analysis, melting point, specific rotatory power, ultraviolet spectrum, infrared spectrum, magnetic nuclear resonance (NMR), C^13 -NMR, mass spectrum (chemical ionization), the release of organic acids under alkaline conditions (gas chromatographical detection), solubility in solvents, color development reaction, basicity of the compounds, appearance and crystalline form. The molecular weight was obtained as QM^+ (Quasi Molecular ion) by chemically-ionized mass spectra analysis.
(§2) (2) the crystals obtained from the solvents in (13) were used for the tests in (1)-(12), and […]

[1] = test system: Candida tropicalis IAM 4924; assay: minimum growth-inhibitory concentration; type: cell-based; conditions: IAM4924
Protocol: (§3) The antimicrobial spectra of new tylosin derivatives of this invention are shown in Table 2 by listing the minimum growth inhibitory concentrations (MIC, mcg/ml). […] The toxicity of these compounds was tested in animals by intravenous administration, and the LD50 values in mice are more than 400 mg/kg with all compounds. In therapeutical experiments with mice manually infected by Staphilococcus aureus SMITH, the ED50 values were less than 50 mg/kg (p.o.) with all said tylosin derivatives.

[2] = test system: Proteus morganii (The Institute for Infectious Diseases); assay: minimum growth-inhibitory concentration; type: cell-based; conditions: Morganella morganii
Protocol: as §3

[3] = test system: Pseudomonas fluorescens NIHJB 254; assay: minimum growth-inhibitory concentration; type: cell-based; conditions: NIHJB254
Protocol: as §3

[4] = test system: Bacillus cereus ATCC 9634; assay: minimum growth-inhibitory concentration; type: cell-based; conditions: ATCC9634
Protocol: as §3

[5] = test system: Candida albicans IAM 4905; assay: minimum growth-inhibitory concentration; type: cell-based; conditions: IAM4905
Protocol: as §3

[6] = test system: Staphylococcus aureus SMITH; assay: minimum growth-inhibitory concentration; type: cell-based
Protocol: as §3

Sarcina lutea ATCC 9341 = assay: minimum growth-inhibitory concentration; type: cell-based; conditions: Micrococcus luteus, ATCC9341
Protocol: as §3

[7] = test system: Escherichia coli (National Institute of Health); assay: minimum growth-inhibitory concentration; type: cell-based
Protocol: as §3

[8] = test system: Mycobacterium smegmatis ATCC 607; assay: minimum growth-inhibitory concentration; type: cell-based; conditions: Mycolicibacterium smegmatis, ATCC607
Protocol: as §3

[9] = test system: Staphylococcus aureus FAD209P; assay: minimum growth-inhibitory concentration; type: cell-based; conditions: read-out: minimum growth-inhibitory concentration (MIC)
Protocol: as §3

[10] = test system: Bacillus megaterium NRRL B-938; assay: minimum growth-inhibitory concentration; type: cell-based; conditions: Priestia megaterium, NRRLB938
Protocol: as §3

[11] = test system: Corynebacterium bovis 1810; assay: minimum growth-inhibitory concentration; type: cell-based
Protocol: as §3

[12] = test system: Bacillus subtilis ATCC 6633; assay: minimum growth-inhibitory concentration; type: cell-based; conditions: ATCC6633
Protocol: as §3

Micrococcus flavus I = assay: minimum growth-inhibitory concentration; type: cell-based
Protocol: as §3

[13] = basicity of the compounds (alkalinity); type: physicochemical
Text: as §1, §2

[14] = test system: Staphylococcus aureus MS 9610; assay: minimum growth-inhibitory concentration; type: cell-based; conditions: MS9610; Staphylococcus aureus MS 9610, drug resistant strain
Protocol: as §3
(§4) The strains marked * in Table 2 are the drug resistant strains isolated from patients, namely, Staphilococcus aureus MS-9610 which is resistant to penicillin, tetracycline, erythromycin, leucomycin, spiramycin, josamycin and tylosin, Staphilococcus aureus MS-8710 which is resistant to penicillin, tetracycline, erythromycin, leucomycin and tylosin, and Streptococcus pyogenes MH 771 which is resistant to erythromycin, oleandomycin, leucomycin and tylosin.

[15] = test system: Staphylococcus aureus MS 8710; assay: minimum growth-inhibitory concentration; type: cell-based; conditions: MS8710; Staphylococcus aureus MS 8710, drug resistant strain
Protocol: as §3, §4

[16] = test system: Streptococcus pyogenes MH 771; assay: minimum growth-inhibitory concentration; type: cell-based; conditions: MH771, read-out: minimum growth-inhibitory concentration (MIC)
Protocol: as §3
(broth-dilution method)
as §4

drug resistant strains = assay: antimicrobial activity against drug resistant strains; type: cell-based; conditions: strains marked * in Table 2
Text: One of the particular advantages of the said tylosin derivatives over known macrolide antibiotics is their distinct antimicrobial activity against drug resistant bacteria.
as §4

Row | SMILES | solubility in acidic water (solubility in solvents) | solubility in alkaline water (solubility in solvents) | solubility in lower alcohols, ketones, ethers, esters, benzene and toluene (solubility in solvents) | solubility in n-hexane and petroleum ether (solubility in solvents) | solubility in neutral water (solubility in solvents) | MIC [1] [µg/mL] | MIC [2] [µg/mL] | MIC [3] [µg/mL] | MIC [4] [µg/mL] | MIC [5] [µg/mL] | MIC [6] [µg/mL] | MIC (Sarcina lutea ATCC 9341) [µg/mL] | MIC [7] [µg/mL] | MIC [8] [µg/mL] | MIC [9] [µg/mL] | MIC [10] [µg/mL] | MIC [11] [µg/mL] | MIC [12] [µg/mL] | MIC (Micrococcus flavus I) [µg/mL] | alkalinity [13] | other results
1 | CCC1OC(=O)CC(OC(C)=O)C(C)C(OC2OC(C)C(OC3CC(C)(O)C(OC(=O)CC(C)C)C(C)O3)C(N(C)C)C2O)C(CC=O)CC(C)C(=O)C=CC(C)=CC1COC1OC(C)C(O)C(OC)C1OC (stereo not shown) [3-acetyl-4"-isovaleryltylosin] | soluble | hardly soluble | soluble | hardly soluble | slightly soluble | > 250 | > 250 | > 250 | 1.95 (≈ 1.87 µM) | > 250 | 0.49 (≈ 0.47 µM) | 0.25 (≈ 0.24 µM) | 125 (≈ 120 µM) | 3.91 (≈ 3.75 µM) | 0.49 (≈ 0.47 µM) | 0.49 (≈ 0.47 µM) | 0.5 (≈ 0.48 µM) | 0.98 (≈ 0.94 µM) | 0.25 (≈ 0.24 µM) | alkaline compounds | MIC [14]: 62.5 µg/mL (≈ 60 µM); MIC [15]: 15.6 µg/mL (≈ 15 µM); MIC [16]: 3.91 µg/mL (≈ 3.75 µM); antimicrobial activity against a wide range of drug resistant strains (drug resistant strains): particularly strong antimicrobial activity
2 | CCCC(=O)OC1C(C)OC(OC2C(C)OC(OC3C(CC=O)CC(C)C(=O)C=CC(C)=CC(COC4OC(C)C(O)C(OC)C4OC)C(CC)OC(=O)CC(OC(C)=O)C3C)C(O)C2N(C)C)CC1(C)O (stereo not shown) [3-acetyl-4"-n-butyryltylosin] | soluble | hardly soluble | soluble | hardly soluble | slightly soluble | > 250 | > 250 | > 250 | 0.98 (≈ 0.953 µM) | > 250 | 0.25 (≈ 0.243 µM) | < 0.12 | 250 (≈ 243 µM) | 1.95 (≈ 1.9 µM) | 0.25 (≈ 0.243 µM) | 0.49 (≈ 0.477 µM) | 0.5 (≈ 0.486 µM) | 0.49 (≈ 0.477 µM) | 0.25 (≈ 0.243 µM) | alkaline compounds | MIC [14]: 250 µg/mL (≈ 243 µM); MIC [15]: 15.6 µg/mL (≈ 15.2 µM); MIC [16]: 15.6 µg/mL (≈ 15.2 µM); antimicrobial activity against a wide range of drug resistant strains (drug resistant strains): particularly strong antimicrobial activity
3 | CCC1OC(=O)CC(OC(C)=O)C(C)C(OC2OC(C)C(OC3CC(C)(O)C(O)C(C)O3)C(N(C)C)C2O)C(CC=O)CC(C)C(=O)/C=C/C(C)=C/C1COC1OC(C)C(O)C(OC)C1OC (stereo not shown) [3-acetyltylosin] | soluble | hardly soluble | soluble | hardly soluble | slightly soluble | > 250 | > 250 | > 250 | 0.49 (≈ 0.511 µM) | > 250 | 0.12 (≈ 0.125 µM) | < 0.12 | 250 (≈ 261 µM) | 7.81 (≈ 8.15 µM) | 0.25 (≈ 0.261 µM) | 0.25 (≈ 0.261 µM) | 0.25 (≈ 0.261 µM) | 0.49 (≈ 0.511 µM) | < 0.12 | alkaline compounds | MIC [14]: > 250 µg/mL; MIC [15]: 250 µg/mL (≈ 261 µM); MIC [16]: 125 µg/mL (≈ 130 µM)
4 | CCC(=O)OC1CC(=O)OC(CC)C(COC2OC(C)C(O)C(OC)C2OC)C=C(C)C=CC(=O)C(C)CC(CC=O)C(OC2OC(C)C(OC3CC(C)(O)C(OC(=O)CC(C)C)C(C)O3)C(N(C)C)C2O)C1C (stereo not shown) [3-propionyl-4"-isovaleryltylosin] | soluble | hardly soluble | soluble | hardly soluble | slightly soluble | > 250 | > 250 | > 250 | 0.98 (≈ 0.928 µM) | > 250 | 1.95 (≈ 1.85 µM) | 0.25 (≈ 0.237 µM) | 250 (≈ 237 µM) | 3.91 (≈ 3.7 µM) | 0.49 (≈ 0.464 µM) | 0.49 (≈ 0.464 µM) | 1 (≈ 0.947 µM) | 0.49 (≈ 0.464 µM) | 0.49 (≈ 0.464 µM) | alkaline compounds | MIC [14]: 62.5 µg/mL (≈ 59.2 µM); MIC [15]: 15.6 µg/mL (≈ 14.8 µM); MIC [16]: 3.91 µg/mL (≈ 3.7 µM); antimicrobial activity against a wide range of drug resistant strains (drug resistant strains): particularly strong antimicrobial activity
5 | CCCC(=O)OC1C(C)OC(OC2C(C)OC(OC3C(CC=O)CC(C)C(=O)C=CC(C)=CC(COC4OC(C)C(O)C(OC)C4OC)C(CC)OC(=O)CC(OC(=O)CC)C3C)C(O)C2N(C)C)CC1(C)O (stereo not shown) [3-propionyl-4"-n-butyryltylosin] | soluble | hardly soluble | soluble | hardly soluble | slightly soluble | > 250 | > 250 | > 250 | 1.95 (≈ 1.87 µM) | > 250 | 0.25 (≈ 0.24 µM) | < 0.12 | 250 (≈ 240 µM) | 3.91 (≈ 3.75 µM) | 0.98 (≈ 0.94 µM) | 0.49 (≈ 0.47 µM) | 0.5 (≈ 0.48 µM) | 0.49 (≈ 0.47 µM) | 0.25 (≈ 0.24 µM) | alkaline compounds | MIC [14]: 250 µg/mL (≈ 240 µM); MIC [15]: 31.3 µg/mL (≈ 30 µM); MIC [16]: 15.6 µg/mL (≈ 15 µM); antimicrobial activity against a wide range of drug resistant strains (drug resistant strains): particularly strong antimicrobial activity
6 | CCC(=O)OC1CC(=O)OC(CC)C(COC2OC(C)C(O)C(OC)C2OC)/C=C(C)/C=C/C(=O)C(C)CC(CC=O)C(OC2OC(C)C(OC3CC(C)(O)C(O)C(C)O3)C(N(C)C)C2O)C1C (stereo not shown) [3-propionyltylosin] | soluble | hardly soluble | soluble | hardly soluble | slightly soluble | > 250 | > 250 | > 250 | 0.25 (≈ 0.257 µM) | > 250 | 0.12 (≈ 0.123 µM) | < 0.12 | 250 (≈ 257 µM) | 3.91 (≈ 4.02 µM) | 0.25 (≈ 0.257 µM) | < 0.12 | 0.25 (≈ 0.257 µM) | 0.25 (≈ 0.257 µM) | < 0.12 | alkaline compounds | MIC [14]: > 250 µg/mL; MIC [15]: 62.5 µg/mL (≈ 64.3 µM); MIC [16]: 62.5 µg/mL (≈ 64.3 µM)
7 | CCC1OC(=O)CC(O)C(C)C(OC2OC(C)C(OC3CC(C)(O)C(OC(=O)CC(C)C)C(C)O3)C(N(C)C)C2O)C(CC=O)CC(C)C(=O)/C=C/C(C)=C/C1COC1OC(C)C(O)C(OC)C1OC (stereo not shown) [4"-isovaleryltylosin] | soluble | hardly soluble | soluble | hardly soluble | slightly soluble | > 250 | > 250 | > 250 | 0.98 (≈ 0.98 µM) | > 250 | 0.25 (≈ 0.25 µM) | < 0.12 | 125 (≈ 125 µM) | 3.91 (≈ 3.91 µM) | 0.49 (≈ 0.49 µM) | 0.98 (≈ 0.98 µM) | 0.5 (≈ 0.5 µM) | 0.49 (≈ 0.49 µM) | 0.25 (≈ 0.25 µM) | alkaline compounds | MIC [14]: 62.5 µg/mL (≈ 62.5 µM); MIC [15]: 15.6 µg/mL (≈ 15.6 µM); MIC [16]: 7.8 µg/mL (≈ 7.8 µM); antimicrobial activity against a wide range of drug resistant strains (drug resistant strains): particularly strong antimicrobial activity
